The record followed here is ChEMBL document CHEMBL4118077, “Synthesis of thiazole linked indolyl-3-glyoxylamide derivatives as tubulin polymerization inhibitors” (Eur J Med Chem, 2017).

For experiment [1], the system named is A549. Nature of the experiment: Antiproliferative activity against human A549 cells after 48 hrs by MTT assay. In kind it is functional, cell-based. To be noted: A549, 48 h.
Experiment [2] deals with HCT-15. Kind of experiment: Antiproliferative activity against human HCT15 cells after 48 hrs by MTT assay. In kind it is functional, cell-based. To be noted: HCT-15, 48 h.
Experiment [3] concerns DU-145. Nature of the experiment: Antiproliferative activity against human DU145 cells after 48 hrs by MTT assay. Type of experiment: functional, cell-based. To be noted: DU-145, 48 h.
In experiment [4] the test system is PC-3. Kind of experiment: Antiproliferative activity against human PC3 cells after 48 hrs by MTT assay. As to conditions: PC-3, 48 h. Type of experiment: functional, cell-based.
The species entered for experiment [5] is Sus scrofa. Kind of experiment: Inhibition of porcine brain tubulin polymerization at 5 uM measured for 1 hr by fluorescence assay relative to control.

On to `O=C(CCn1cc(C(=O)C(=O)N2CCCCC2)c2ccccc21)Nc1nc(-c2ccccc2)cs1`, for which the IC50 in experiment [1], in experiment [2], in experiment [3] and in experiment [4] was greater than 50 µM in each case.

Turning to `Cc1ccc(-c2csc(NC(=O)CCn3cc(C(=O)C(=O)N4CCCCC4)c4ccccc43)n2)cc1`, the IC50 in experiment [1], in experiment [2], in experiment [3] and in experiment [4] was greater than 50 µM in each case.

Take `O=C(CCn1cc(C(=O)C(=O)N2CCCCC2)c2ccccc21)Nc1nccs1`: the IC50 in experiment [1], in experiment [2], in experiment [3] and in experiment [4] was greater than 50 µM in each case.

As for `CCOC(=O)c1nc(NC(=O)Cn2cc(C(=O)C(=O)N3CCCCC3)c3ccccc32)sc1C`, the IC50 is greater than 50 µM in experiment [1], 3.21 µM in experiment [3] and 8.2 µM in experiment [4].

Regarding `CCOC(=O)c1nc(NC(=O)Cn2cc(C(=O)C(=O)NC3CC3)c3ccccc32)sc1C`, the inhibition in experiment [5] was found to be 21.3%. For the same compound, the IC50 in experiment [1] was 20.9 µM; in experiment [2], 10.3 µM; in experiment [3] it was 4.6 µM; in experiment [4] it was 8.5 µM.

The compound `CCOC(=O)c1nc(NC(=O)CCn2cc(C(=O)C(=O)N3CCCCC3)c3ccccc32)sc1C` displayed an inhibition in experiment [5] of 12.2%. Besides, the IC50 in experiment [1], in experiment [2], in experiment [3] and in experiment [4] was greater than 50 µM in each case.

With `COc1cc([C@@H]2c3cc4c(cc3[C@H](O)[C@H]3COC(=O)[C@H]23)OCO4)cc(OC)c1OC`, the inhibition in experiment [5] was found to be 78%.

In experiment [5], `COc1ccc2sc(NC(=O)Cn3cc(C(=O)C(=O)N4CCCCC4)c4ccccc43)nc2c1` registered an inhibition of 38.5%. The IC50 in experiment [1] is greater than 50 µM; in experiment [2], greater than 50 µM; in experiment [3] it was 6.4 µM; in experiment [4], 4.2 µM.

Turning to `O=C(Cn1cc(C(=O)C(=O)NC2CC2)c2ccccc21)Nc1nccs1`, the IC50 in experiment [1], in experiment [3] and in experiment [4] was greater than 50 µM throughout.

As to `O=C(Cn1cc(C(=O)C(=O)Nc2ccccc2)c2cc(Br)ccc21)Nc1nccs1`, the IC50 is 43.7 µM in experiment [1], greater than 50 µM in experiment [2], 25.5 µM in experiment [3] and greater than 50 µM in experiment [4].

For the compound `COc1ccc2sc(NC(=O)CCn3cc(C(=O)C(=O)N4CCCCC4)c4ccccc43)nc2c1`, the IC50 in experiment [1] is greater than 50 µM; in experiment [2], greater than 50 µM; in experiment [3], 12.3 µM; in experiment [4], 15.3 µM.

Consider `O=C(Cn1cc(C(=O)C(=O)NC2CC2)c2ccccc21)Nc1nc(-c2ccccc2)cs1`, for which the IC50 was 41.8 µM in experiment [1], greater than 50 µM in experiment [3] and greater than 50 µM in experiment [4].

`COc1ccc2sc(NC(=O)Cn3cc(C(=O)C(=O)NC4CC4)c4ccccc43)nc2c1`: the IC50 in experiment [1] is greater than 50 µM; in experiment [2] it was greater than 50 µM; in experiment [3] it was 5.5 µM; in experiment [4], 9.4 µM.

For the compound `O=C(Cn1cc(C(=O)C(=O)N2CCCCC2)c2ccccc21)Nc1nc(-c2ccccc2)cs1`, the concentration for half-maximal inhibition (IC50) in experiment [1] is greater than 50 µM; in experiment [2] it was greater than 50 µM; in experiment [3], 25.4 µM; in experiment [4], greater than 50 µM.

For `Cc1ccc(-c2csc(NC(=O)Cn3cc(C(=O)C(=O)Nc4ccccc4)c4cc(Br)ccc43)n2)cc1`, the IC50 in experiment [1] is greater than 50 µM; in experiment [2], greater than 50 µM; in experiment [3], 10.2 µM; in experiment [4], greater than 50 µM.

Turning to `O=C(Cn1cc(C(=O)C(=O)Nc2ccccc2)c2ccccc21)Nc1nccs1`, in experiment [5], the inhibition was determined as 23.5%. Moreover, the concentration for half-maximal inhibition (IC50) was 20.9 µM in experiment [1], greater than 50 µM in experiment [2], 5.15 µM in experiment [3] and greater than 50 µM in experiment [4].

In turn, `CCOC(=O)c1nc(NC(=O)Cn2cc(C(=O)C(=O)Nc3ccccc3)c3ccccc32)sc1C` showed an inhibition in experiment [5] of 58.4%. The IC50 in experiment [1] was 6.3 µM; in experiment [2], 2.5 µM; in experiment [3] it was 0.14 µM; in experiment [4], 6.1 µM.

In the case of `O=C(Cn1cc(C(=O)C(=O)Nc2ccccc2)c2ccccc21)Nc1nc(-c2ccccc2)cs1`, the IC50 is greater than 50 µM in experiment [1], greater than 50 µM in experiment [2], 34.3 µM in experiment [3] and greater than 50 µM in experiment [4].

Consider `O=C(Cn1cc(C(=O)C(=O)N2CCCCC2)c2ccccc21)Nc1nccs1`, for which the IC50 in experiment [1], in experiment [2], in experiment [3] and in experiment [4] was greater than 50 µM throughout.

`COc1ccc2sc(NC(=O)Cn3cc(C(=O)C(=O)Nc4ccccc4)c4cc(Br)ccc43)nc2c1` had an inhibition in experiment [5] of 23.3%. Further, the IC50 is greater than 50 µM in experiment [1], 12.5 µM in experiment [2], 5.6 µM in experiment [3] and 13.6 µM in experiment [4].
